The text below walks through data of patent publication US20210038607A1, “OXADIAZOLYLTHIOPHENE DERIVATIVES USEFUL AS HISTONE DEACETYLASE INHIBITORS” (Karus Therapeutics Limited, priority 2018, published 2021).

The target of one assay is T1, Human HDAC1 (Homo sapiens, UniProt Q13547).
T1 construct: full length with C-terminal His-tag and C-terminal FLAG-tag; His (C); FLAG (C); host or cells: baculovirus expression system
Nature of the assay: HDAC1 biochemical assay, AMC-labeled peptide substrate. To be noted: read-out: HDAC Isoform IC50 (nM) 1. How it is done:
(§1) Activity against all zinc-dependent HDACs 1 to 11 was assessed by using an acetylated AMC-labeled peptide substrate. The substrate RHKK(Ac)AMC was used for HDAC1, HDAC2, HDAC3, HDAC6 and HDAC10; the substrate used for HDAC8 was RHK(Ac)K(Ac)AMC. Activity against the class IIa HDACs (HDAC4, 5, 7, 9) and HDAC11 was determined using a class IIa-specific substrate, BOC-Lys(trifluoroacetyl)-AMC (“Trifluoroacetyl Lysine”; see Lahm et al, 2007, PNAS, 104, 17335-17340). All assays were based on the AMC-labeled substrate and developer combination.
(§2) The protocol involved a two-step reaction: first, the substrate with the acetylated lysine side chain is incubated with a sample containing HDAC activity, to produce the deacetylated products, which are then digested in the second step by the addition of developer to produce the fluorescent signal proportional to the amount of deacetylated substrates.
Human HDAC1 (GenBank Accession No. NM_004964), full length with C-terminal His-tag and C-terminal FLAG-tag, MW=56 kDa, expressed in baculovirus expression system.
(§3) Assay Buffer: 50 mM Tris-HCl, pH8.0, 137 mM NaCl, 2.7 mM KCl, 1 mM MgC2. Before use, 1 mg/mL BSA and DMSO are added.
HDAC1: 0.3 ng/ul HDAC1 and 50 μM HDAC substrate are in the reaction buffer with 1% DMSO final. Incubate for 1 hour at 30° C.
(§4) Stage 1: Deacetylation of substrate by incubation of HDAC enzymes with compounds
(§5) Stage 2: Development by addition of Developer to digest the deacetylated substrate, and generate the fluorescent colour; Detection: 360/460 Ex/Em

Another assay has as its target T2, Human HDAC4 (Homo sapiens, UniProt P56524).
T2 construct: amino acids 627-1085 with N-terminal GST tag; GST (N); host or cells: baculovirus expression system
Nature of the assay: HDAC4 biochemical assay, class IIa-specific substrate. To be noted: read-out: HDAC Isoform IC50 (nM) 4. How it is done: as §1, §2
Human HDAC4 (GenBank Accession No. NM_006037), amino acids 627-1085 with N-terminal GST tag, MW=75.2 kDa, expressed in baculovirus expression system.
as §3
(§6) For class IIa HDACs, assay buffer is the same.
HDAC4: 0.004 ng/ul HDAC4 and 50 μM Class IIa HDAC substrate are in the reaction buffer with 1% DMSO final. Incubate for 30 minutes at room temperature.
as §4, §5

The next assay addresses T3, Human HDAC5 (Homo sapiens, UniProt Q9UQL6).
T3 construct: full length with C-terminal His tag, MW=51.1 kDa; His (C); host or cells: baculovirus expression system
In words: HDAC5 biochemical assay, class IIa-specific substrate. As to conditions: read-out: HDAC Isoform IC50 (nM) 5. How it is done:
as §1, §2
Human HDAC5 (GenBank Accession No. NM_005474), full length with C-terminal His tag, MW=51.1 kDa, expressed in baculovirus expression system.
as §3, §6
HDAC5: 0.05 ng/ul HDAC5 and 50 μM Class IIa HDAC substrate are in the reaction buffer with 1% DMSO final. Incubate for 30 minutes at room temperature.
as §4, §5

The target in the next assay is T4, Recombinant human HDAC6 (Homo sapiens, UniProt Q9UBN7).
T4 construct: full length, MW=159 kDa; GST (N); host or cells: Sf9 insect cells (baculovirus)
T4 sequence (Q9UBN7 1-1215): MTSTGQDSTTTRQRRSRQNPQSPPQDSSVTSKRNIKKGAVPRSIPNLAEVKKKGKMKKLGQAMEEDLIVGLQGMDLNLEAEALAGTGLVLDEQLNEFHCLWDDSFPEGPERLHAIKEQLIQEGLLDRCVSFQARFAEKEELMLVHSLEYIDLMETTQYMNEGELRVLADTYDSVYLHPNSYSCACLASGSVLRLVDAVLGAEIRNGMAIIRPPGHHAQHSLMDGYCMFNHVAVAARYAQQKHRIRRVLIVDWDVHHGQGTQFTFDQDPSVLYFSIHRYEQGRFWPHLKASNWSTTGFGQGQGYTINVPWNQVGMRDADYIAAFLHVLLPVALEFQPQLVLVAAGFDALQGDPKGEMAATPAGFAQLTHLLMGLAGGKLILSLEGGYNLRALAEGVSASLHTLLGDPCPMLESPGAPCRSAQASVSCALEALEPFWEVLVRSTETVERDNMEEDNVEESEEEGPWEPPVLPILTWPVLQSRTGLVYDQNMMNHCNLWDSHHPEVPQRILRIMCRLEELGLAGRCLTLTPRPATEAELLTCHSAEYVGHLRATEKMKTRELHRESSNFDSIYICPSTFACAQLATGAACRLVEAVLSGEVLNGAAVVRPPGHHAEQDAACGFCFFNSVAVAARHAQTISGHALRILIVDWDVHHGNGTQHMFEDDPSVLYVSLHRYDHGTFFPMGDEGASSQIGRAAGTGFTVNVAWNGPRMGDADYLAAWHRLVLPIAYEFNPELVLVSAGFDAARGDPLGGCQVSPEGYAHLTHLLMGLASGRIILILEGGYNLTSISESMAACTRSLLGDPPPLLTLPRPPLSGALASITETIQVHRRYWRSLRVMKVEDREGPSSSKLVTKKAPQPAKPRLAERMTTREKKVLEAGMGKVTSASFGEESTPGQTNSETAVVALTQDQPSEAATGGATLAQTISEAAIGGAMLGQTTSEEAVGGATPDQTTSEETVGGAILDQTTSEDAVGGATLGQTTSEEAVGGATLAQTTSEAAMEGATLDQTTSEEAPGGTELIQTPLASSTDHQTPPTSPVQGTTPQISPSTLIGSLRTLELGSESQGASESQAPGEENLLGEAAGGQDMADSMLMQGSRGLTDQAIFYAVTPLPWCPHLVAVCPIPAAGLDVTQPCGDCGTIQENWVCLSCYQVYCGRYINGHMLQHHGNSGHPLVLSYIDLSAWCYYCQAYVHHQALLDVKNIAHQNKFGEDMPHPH
In words: HDAC6 biochemical assay, AMC-labeled peptide substrate. As to conditions: HDAC6; read-out: HDAC Isoform IC50 (nM) 6. How it is done: as §1, §2
Recombinant human HDAC6 (GenBank Accession No. BC069243), full length, MW=159 kDa, was expressed by baculovirus in Sf9 insect cells using an N-terminal GST tag.
as §3
HDAC6: 0.3 ng/ul HDAC6 and 50 μM HDAC substrate are in the reaction buffer with 1% DMSO final. Incubate for 1 hours at 30° C.
as §4, §5

Another assay deals with T5, Human HDAC9 (Homo sapiens, UniProt Q9UKV0).
T5 construct: amino acids 604-1066 with C-terminal His tag; His (C); host or cells: baculovirus expression system
In words: HDAC9 biochemical assay, class IIa-specific substrate. To be noted: read-out: HDAC Isoform IC50 (nM) 9. How it is done:
as §1, §2
Human HDAC9 (GenBank Accession No. NM_178423), amino acids 604-1066 with C-terminal His tag, MW=50.7 kDa, expressed in baculovirus expression system.
as §3, §6
HDAC9: 0.06 ng/ul HDAC9 and 50 μM Class IIa HDAC substrate are in the reaction buffer with 1% DMSO final. Incubate for 30 minutes at room temperature.
as §4, §5

The target of another assay is T6, Human HDAC7 (Homo sapiens, UniProt Q8WUI4).
T6 construct: (a.a. 518-end) with N-terminal GST tag; GST (N); host or cells: baculovirus expression system
T6 sequence (Q8WUI4 518-952 limits assumed): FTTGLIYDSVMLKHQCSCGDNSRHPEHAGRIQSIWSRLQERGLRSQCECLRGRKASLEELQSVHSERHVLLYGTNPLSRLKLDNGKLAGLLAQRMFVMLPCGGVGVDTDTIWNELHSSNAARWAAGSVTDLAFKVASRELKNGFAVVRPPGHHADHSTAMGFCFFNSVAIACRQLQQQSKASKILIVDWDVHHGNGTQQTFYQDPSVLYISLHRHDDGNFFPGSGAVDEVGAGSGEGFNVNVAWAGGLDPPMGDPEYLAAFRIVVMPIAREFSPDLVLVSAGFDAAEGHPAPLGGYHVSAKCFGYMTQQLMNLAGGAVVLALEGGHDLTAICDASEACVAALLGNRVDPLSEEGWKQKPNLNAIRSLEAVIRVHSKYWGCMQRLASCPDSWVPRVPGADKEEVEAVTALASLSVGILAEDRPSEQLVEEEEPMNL
Nature of the assay: HDAC7 biochemical assay, class IIa-specific substrate. As to conditions: read-out: HDAC Isoform IC50 (nM) 7. How it is done:
as §1, §2
Human HDAC7 (GenBank Accession No. AY302468), (a.a. 518-end) with N-terminal GST tag, MW=78 kDa, expressed in baculovirus expression system.
as §3, §6
HDAC7: 0.001 ng/ul HDAC7 and 50 μM Class IIa HDAC substrate are in the reaction buffer with 1% DMSO final. Incubate for 30 minutes at room temperature.
as §4, §5

T3 sequence (Q9UQL6 656-1122 limits assumed): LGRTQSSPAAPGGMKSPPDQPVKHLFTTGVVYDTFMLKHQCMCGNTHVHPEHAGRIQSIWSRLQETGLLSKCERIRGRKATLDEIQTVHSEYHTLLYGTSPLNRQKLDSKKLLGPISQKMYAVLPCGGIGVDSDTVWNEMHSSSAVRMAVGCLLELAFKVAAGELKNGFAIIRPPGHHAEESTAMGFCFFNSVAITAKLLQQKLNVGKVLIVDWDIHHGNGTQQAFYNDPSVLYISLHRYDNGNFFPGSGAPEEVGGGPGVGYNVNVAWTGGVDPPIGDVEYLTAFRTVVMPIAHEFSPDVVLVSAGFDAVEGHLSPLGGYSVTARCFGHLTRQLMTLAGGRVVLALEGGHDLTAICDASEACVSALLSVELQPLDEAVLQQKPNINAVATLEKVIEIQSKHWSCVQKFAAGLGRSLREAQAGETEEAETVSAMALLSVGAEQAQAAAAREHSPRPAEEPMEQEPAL
T5 sequence (Q9UKV0 604-1066 isoform Q9UKV0-5): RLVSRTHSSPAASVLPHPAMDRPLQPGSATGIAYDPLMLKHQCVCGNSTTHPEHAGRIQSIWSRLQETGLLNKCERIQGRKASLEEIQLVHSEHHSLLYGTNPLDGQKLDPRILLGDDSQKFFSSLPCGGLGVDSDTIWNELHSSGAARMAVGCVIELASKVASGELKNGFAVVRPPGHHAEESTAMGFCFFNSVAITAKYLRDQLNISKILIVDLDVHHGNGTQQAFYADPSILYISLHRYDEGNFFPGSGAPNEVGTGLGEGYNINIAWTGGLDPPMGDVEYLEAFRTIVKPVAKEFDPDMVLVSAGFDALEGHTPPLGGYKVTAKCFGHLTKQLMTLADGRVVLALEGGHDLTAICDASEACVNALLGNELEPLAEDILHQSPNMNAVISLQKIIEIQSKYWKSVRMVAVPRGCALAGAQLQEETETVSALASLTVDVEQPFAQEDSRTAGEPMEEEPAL
T2 sequence (P56524 627-1084 limits assumed): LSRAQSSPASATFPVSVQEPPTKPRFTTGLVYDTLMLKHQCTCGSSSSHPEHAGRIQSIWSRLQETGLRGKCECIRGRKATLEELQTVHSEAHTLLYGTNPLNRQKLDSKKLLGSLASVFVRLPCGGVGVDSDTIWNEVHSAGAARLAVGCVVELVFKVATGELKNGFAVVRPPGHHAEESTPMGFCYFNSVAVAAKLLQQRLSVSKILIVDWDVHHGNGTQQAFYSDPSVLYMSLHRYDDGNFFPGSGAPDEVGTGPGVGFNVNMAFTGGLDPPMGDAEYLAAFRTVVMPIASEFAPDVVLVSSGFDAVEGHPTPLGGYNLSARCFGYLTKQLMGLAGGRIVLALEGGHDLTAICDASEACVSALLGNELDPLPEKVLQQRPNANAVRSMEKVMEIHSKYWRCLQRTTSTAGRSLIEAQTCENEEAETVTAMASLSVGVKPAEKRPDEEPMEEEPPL
T1 sequence (Q13547 whole entry): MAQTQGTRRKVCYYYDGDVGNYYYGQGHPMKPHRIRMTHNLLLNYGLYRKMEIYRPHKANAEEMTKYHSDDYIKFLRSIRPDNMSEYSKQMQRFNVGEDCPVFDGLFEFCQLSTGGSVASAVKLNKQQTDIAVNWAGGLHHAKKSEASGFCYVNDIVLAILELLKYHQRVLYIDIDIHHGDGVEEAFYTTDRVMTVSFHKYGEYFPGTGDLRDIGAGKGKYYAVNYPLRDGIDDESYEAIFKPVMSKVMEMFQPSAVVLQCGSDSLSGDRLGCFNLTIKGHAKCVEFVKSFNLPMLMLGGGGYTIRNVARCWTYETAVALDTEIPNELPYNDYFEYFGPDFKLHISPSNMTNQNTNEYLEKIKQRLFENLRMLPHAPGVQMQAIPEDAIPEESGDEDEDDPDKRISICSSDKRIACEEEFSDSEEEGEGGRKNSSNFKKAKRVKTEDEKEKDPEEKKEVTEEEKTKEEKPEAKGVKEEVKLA

The term IC50 denotes the concentration needed to halve the response being measured. On to `FC(F)(F)c1nc(-c2ccc(CN(c3cnccn3)c3ccc(-n4cccn4)nn3)s2)no1` [Example DM, N-(Pyrazin-2-yl)-6-(1H-pyrazol-1-yl)-N-({5-[5-(trifluoromethyl)-1,2,4-oxadiazol-3-yl]thiophen-2-yl}methyl)pyridazin-3-amine], for which the concentration for half-maximal inhibition (IC50) at Human HDAC1 is no more than 10000 nM; at Human HDAC4 it was no more than 500 nM; at Human HDAC5, no more than 1000 nM; at Recombinant human HDAC6 it was no more than 1000 nM; on Human HDAC9, no more than 1000 nM; at Human HDAC7, no more than 1000 nM.

`COc1cncnc1N(Cc1ccc(-c2noc(C(F)(F)F)n2)s1)c1cnccn1` [Example CP, 5-Methoxy-N-(pyrazin-2-yl)-N-({5-[5-(trifluoromethyl)-1,2,4-oxadiazol-3-yl]thiophen-2-yl}methyl)pyrimidin-4-amine]: the half-maximal inhibitory concentration (IC50) on Human HDAC1 was greater than 10000 nM; on Human HDAC4, no more than 10000 nM; at Human HDAC5, no more than 10000 nM; on Recombinant human HDAC6, no more than 1000 nM; at Human HDAC9, no more than 10000 nM; at Human HDAC7, no more than 10000 nM.

With `FC(F)(F)c1nc(-c2ccc(CN(c3cnccn3)c3nccnn3)s2)no1` [Example DE, N-(Pyrazin-2-yl)-N-({5-[5-(trifluoromethyl)-1,2,4-oxadiazol-3-yl]thiophen-2-yl}methyl)-1,2,4-triazin-3-amine], the IC50 on Human HDAC1 was greater than 10000 nM; on Human HDAC4, no more than 1000 nM; on Human HDAC5, no more than 1000 nM; on Recombinant human HDAC6, no more than 1000 nM; at Human HDAC9, no more than 10000 nM; on Human HDAC7 it was no more than 1000 nM.

Regarding `FC(F)(F)c1cnnc(N(Cc2ccc(-c3noc(C(F)(F)F)n3)s2)c2cncnc2)c1` [Example EQ, N-(Pyrimidin-5-yl)-5-(trifluoromethyl)-N-({5-[5-(trifluoromethyl)-1,2,4-oxadiazol-3-yl]thiophen-2-yl}methyl)pyridazin-3-amine], the IC50 was greater than 10000 nM at Human HDAC1; no more than 10000 nM at Human HDAC4; no more than 10000 nM on Human HDAC5; no more than 1000 nM on Recombinant human HDAC6; no more than 10000 nM on Human HDAC9; no more than 10000 nM on Human HDAC7.

Regarding `FC(F)(F)c1nc(-c2ccc(CN(c3cnccn3)c3ccc4ncccc4n3)s2)no1` [Example X, N-(Pyrazin-2-yl)-N-({5-[5-(trifluoromethyl)-1,2,4-oxadiazol-3-yl]thiophen-2-yl}methyl)-1,5-naphthyridin-2-amine], the half-inhibitory concentration (IC50) at Human HDAC1 is greater than 10000 nM; at Human HDAC4, no more than 500 nM; at Human HDAC5 it was no more than 1000 nM; at Recombinant human HDAC6 it was no more than 1000 nM; on Human HDAC9 it was no more than 1000 nM; on Human HDAC7, no more than 1000 nM.

For the molecule `Cc1ncc(N(Cc2ccc(-c3noc(C(F)(F)F)n3)s2)c2cnccn2)cn1` [Example CS, 2-Methyl-N-(pyrazin-2-yl)-N-({5-[5-(trifluoromethyl)-1,2,4-oxadiazol-3-yl]thiophen-2-yl}methyl)pyrimidin-5-amine], the IC50 was no more than 10000 nM at Human HDAC1; no more than 500 nM on Human HDAC4; no more than 1000 nM at Human HDAC5; no more than 1000 nM on Recombinant human HDAC6; no more than 10000 nM at Human HDAC9; no more than 500 nM on Human HDAC7.

For `Fc1cnc(N(Cc2ccc(-c3noc(C(F)(F)F)n3)s2)c2cnccn2)nc1` [Example AX, 5-Fluoro-N-(pyrazin-2-yl)-N-({5-[5-(trifluoromethyl)-1,2,4-oxadiazol-3-yl]thiophen-2-yl}methyl)pyrimidin-2-amine], the IC50 at Human HDAC1 is greater than 10000 nM; on Human HDAC4, no more than 10000 nM; on Human HDAC5 it was no more than 10000 nM; at Recombinant human HDAC6, no more than 10000 nM; at Human HDAC9, no more than 10000 nM; on Human HDAC7, no more than 10000 nM.

Turning to `FC(F)(F)c1cnnc(N(Cc2ccc(-c3noc(C(F)(F)F)n3)s2)c2ccc(N3CCCC3)nn2)c1` [Example EW, 6-(Pyrrolidin-1-yl)-N-({5-[5-(trifluoromethyl)-1,2,4-oxadiazol-3-yl]thiophen-2-yl}methyl)-N-[5-(trifluoromethyl)pyridazin-3-yl]pyridazin-3-amine], the 50% inhibitory concentration (IC50) is greater than 10000 nM on Human HDAC1; no more than 10000 nM on Human HDAC4; no more than 10000 nM at Human HDAC5; no more than 10000 nM on Recombinant human HDAC6; no more than 10000 nM at Human HDAC9; no more than 10000 nM at Human HDAC7.
